The values that follow come from patent publication US7718669B2, “Triazolopyridine derivatives as inhibitors of lipases and phospholipases” (Sanofi-Aventis, priority 2005, dated 2010).

The target of the assay is T1, endothelial lipase (EL) (Homo sapiens, UniProt Q9Y5X9).
T1 construct: made in house; host or cells: recombinant CHO or HEK293 cell lines; concentrated conditioned medium
T1 sequence (Q9Y5X9 21-500): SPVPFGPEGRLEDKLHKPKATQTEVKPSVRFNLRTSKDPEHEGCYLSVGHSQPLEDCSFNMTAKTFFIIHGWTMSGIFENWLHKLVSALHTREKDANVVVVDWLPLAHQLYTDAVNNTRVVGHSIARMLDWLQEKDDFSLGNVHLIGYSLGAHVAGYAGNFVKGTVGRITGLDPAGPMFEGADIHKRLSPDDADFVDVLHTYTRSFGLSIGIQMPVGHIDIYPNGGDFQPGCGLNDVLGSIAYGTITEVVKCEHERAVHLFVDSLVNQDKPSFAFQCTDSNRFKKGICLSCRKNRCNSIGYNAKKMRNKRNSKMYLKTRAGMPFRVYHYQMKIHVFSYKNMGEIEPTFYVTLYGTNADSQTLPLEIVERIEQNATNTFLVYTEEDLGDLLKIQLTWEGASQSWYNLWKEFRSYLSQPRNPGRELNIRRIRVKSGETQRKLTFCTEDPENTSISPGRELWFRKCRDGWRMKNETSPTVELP
Put plainly: EL inhibition assay. The assay is classed as biochemical. Particulars: EL from conditioned medium of recombinant cell lines (CHO, HEK293); Bodipy phospholipid substrate; 37° C. for 60 minutes. From the text:
EL is released as secretory protein in high concentration into cell culture medium (conditioned medium) by recombinant cell lines (CHO, HEK293). This is employed as enzyme solution after concentration.
The phospholipase-specific substrate 1,2-bis(4,4-difluoro-5,7-dimethyl-4-bora-3a,4a-diaza-s-indacene-3-undecanoyl)-sn-glycero-3-phosphocholine, (manufacturer Molecular Probes) is used to characterize the enzymatic activity of endothelial lipase and the effect of inhibitors. Hydrolysis of the A1 ester linkage of this phospholipid by the enzyme liberates the fluorescent dye Bodipy which can be detected after separation by thin-layer chromatography on an HPTLC plate (silica gel 60, Merck) or directly in the reaction vessel by measuring the fluorescence. The substrate solution is prepared by taking up 100 μg of 1,2-bis(4,4-difluoro-5,7-dimethyl-4-bora-3a,4a-diaza-s-indacene-3-undecanoyl)-sn-glycero-3-phospho-choline (manufacturer Molecular Probes), 2.4 mg of tripalmitin (Sigma) and 7.9 mg of DOP-choline (1,2-dioleoyl-sn-glycero-3-phosphocholine) in 393 μl of chloroform and then transferring 157 μl into a fresh reaction vessel. After evaporation of the solvent, the lipid mixture is dissolved in 4 ml of 200 mM TRIS-HCl, 150 mM sodium chloride, pH=7.4, by sonication twice. The subsequent enzymic reaction takes place at 37° C. for 60 minutes. For this purpose, 45 μl of the substrate solution are incubated with 1 μl of inhibitor of appropriate concentration (dissolved in DMSO, pure DMSO solution is used as control) and 5 μl of enzyme solution (conditioned medium). Then 3 μl of the assay mixture are loaded onto an HPTLC plate (silica gel 60, Merck), and the liberated fluorescent dye is separated for detection with an eluent (diethyl ether:petroleum benzene:acetic acid [78:22:1]). After evaporation of the eluent, the plate is read in a fluorescence scanner. An increased release of the fluorescent dye in the uninhibited reaction is to be observed as a measure of the enzymic activity.
The enzymatic activity is reduced as a function of the inhibitor concentration used, and the inhibitor concentration at which a half-maximum enzymic activity is observed is called IC50.

The structures appear in SMILES notation.

A word on the IC50: it is the concentration needed to halve the response being measured.

In the case of `Cc1ccccc1CNC(=O)n1nnc2cc(Cl)cnc21` [Example 68], the IC50 amounted to 1.24 µM.
